Reference: article PMC4155923 (AIDS (London, England), 2012)
Read-outs that look alike come from different tables or passages of the source.

How the values were obtained:
sHLA-B*57:01 [1] = molecular target: T1, sHLA-B*57:01 (Homo sapiens, UniProt P01889); experiment: Drug effect on LF9FITC peptide binding to sHLA-B*57:01
HLA-B*57:01 = format: cell-based, human; conditions: abacavir-treated cells
[2] = test system: patients expressing HLA risk alleles; conditions: cited from earlier work
CD8+ T cells = conditions: abacavir hypersensitivity; ref [14]; cited from earlier work
sHLA-B*57:01 [3] = molecular target: T1, sHLA-B*57:01; experiment: HLA-B*57:01 fluorescence polarization competition peptide-binding assay; conditions: competition with LF9FITC; for affinity for HLA-B*57:01 (in words): fluorescence polarization, no abacavir
[4] = molecular target: Soluble HLA-B*57:01 (human | human (endogenous in 721.221)); experiment: fluorescence polarisation

In the case of `Nc1nc(NC2CC2)c2ncn([C@H]3C=C[C@@H](CO)C3)c2n1` [Abacavir, abacavir], the “LF9FITC reference binding signal in competition experiment” value (sHLA-B*57:01 [1]; 200 μmol/l abacavir, in presence of competitor peptide HSL or STIR) is reported as “expected increase in reference LF9FITC peptide binding signal with abacavir”, the “concentration at which the increase in LF9FITC binding starts” value (sHLA-B*57:01 [1]; fluorescence polarization at equilibrium) is reported as 10 µmol/L and the “covalent drug-peptide adducts in peptide fractions” value (HLA-B*57:01) is reported as “we have not, as yet, identified covalent drug–peptide adducts in the peptide fractions”. For the same molecule, the “tolerance of abacavir in HLA-B*57:01 individuals” value ([2]; HLA-B*57:01 individuals, ref (1)) was “Many HLA-B*57:01 individuals are able to tolerate abacavir and not show hypersensitivity”, the HLA-associated drug reaction ([2]; drug hypersensitivity, HLA-B*57:01, ref [1]–[3]) was “linked to HLA-B*57:01” and the “requirements of CD8+ T-cell response” value (CD8+ T cells) was “CD8^+ T-cell responses require transporter of antigen presentation (TAP)/tapasin expression, antigen processing and specific amino acids in the F pocket of HLA-B*57:01”.

For `Oc1ncnc2[nH]ncc12` [allopurinol], the HLA-associated drug reaction ([2]; severe cutaneous adverse reactions, HLA-B*58:01, ref [7]) is listed as “Severe cutaneous adverse reactions associated with class I HLA”.

In the case of `NC(=O)N1c2ccccc2C=Cc2ccccc21` [carbamazepine], the HLA-associated drug reaction ([2]; severe cutaneous adverse reactions, HLA-B*15:02 [4], B*15:11 [5], A*31:01 [6], ref [4]–[6]) is listed as “Severe cutaneous adverse reactions associated with class I HLA”.

For `Cc1onc(-c2c(F)cccc2Cl)c1C(=O)N[C@@H]1C(=O)N2[C@@H]1SC(C)(C)[C@@H]2C(=O)O` [flucloxacillin], the HLA-associated drug reaction ([2]; liver injury, HLA-B*57:01, ref [8]) is given as “causes drug-induced liver injury in patients expressing HLA-B*57:01”.

In the case of LSSPVTKSF [LF9], the “affinity for HLA-B*57:01 (in words)” value (sHLA-B*57:01 [3]) is reported as “consistent with high-affinity binding”.

In the case of STIRLLTSL, the “affinity for HLA-B*57:01 (in words)” value (sHLA-B*57:01 [3]) is reported as “could strongly compete in the HLA-B*57:01 peptide-binding assay (Fig. 4a and b), with logIC50 values consistent with high-affinity binding” and the “effect of abacavir on IC50 / inhibition by competitor peptide” value (sHLA-B*57:01 [3]; presence vs absence of 200 μmol/l abacavir) is reported as “No significant difference in inhibition”.

LSSPVTKSF [LF9 (…)] gave a log IC50 [4] of 2.6.
